Source: patent US8822414B2, “Heterocyclic compounds suitable for the treatment of dyslipidemia” (Cadila Healthcare Limited, priority 2010, dated 2014)

What was measured:
[1] = biological target: pro-protein convertase of the subtype nine binding to recombinant LDLR-AB domain (Homo sapiens, UniProt Q8NBP7); assay: in vitro quantitative solid phase binding assay (ELISA) of the subtype nine pro-protein convertase to immobilized LDLR; conditions: for inhibition at 1 µM: Concentration 1 μM; for inhibition at 10 µM: Concentration 10 μM; for inhibition at 100 µM: Concentration 100 μM
Chain of pro-protein convertase of the subtype nine binding to recombinant LDLR-AB domain (Q8NBP7 153-692): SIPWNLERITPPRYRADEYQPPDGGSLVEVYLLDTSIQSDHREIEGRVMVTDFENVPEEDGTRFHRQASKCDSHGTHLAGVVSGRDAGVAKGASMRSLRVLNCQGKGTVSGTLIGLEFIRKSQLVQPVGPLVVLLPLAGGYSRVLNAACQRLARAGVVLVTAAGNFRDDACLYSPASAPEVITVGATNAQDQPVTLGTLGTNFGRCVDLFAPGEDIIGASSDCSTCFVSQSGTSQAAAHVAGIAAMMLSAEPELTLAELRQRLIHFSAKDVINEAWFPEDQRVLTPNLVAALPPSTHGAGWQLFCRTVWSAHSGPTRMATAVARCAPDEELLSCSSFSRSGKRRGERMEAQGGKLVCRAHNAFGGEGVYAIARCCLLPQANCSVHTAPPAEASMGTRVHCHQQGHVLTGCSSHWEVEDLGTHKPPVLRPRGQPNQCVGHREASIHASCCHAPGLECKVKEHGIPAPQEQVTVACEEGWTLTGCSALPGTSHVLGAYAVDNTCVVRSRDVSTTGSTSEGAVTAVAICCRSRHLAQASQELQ
Chain of pro-protein convertase of the subtype nine binding to recombinant LDLR-AB domain (Q8NBP7 31-152 partner limits assumed): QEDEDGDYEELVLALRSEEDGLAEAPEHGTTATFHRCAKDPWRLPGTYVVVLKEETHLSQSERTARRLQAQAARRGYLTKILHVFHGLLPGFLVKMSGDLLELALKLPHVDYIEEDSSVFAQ
Description: The in vitro binding assay described hereinafter is a quantitative solid phase binding assay for determining the efficacy of the compounds. Plates were pre-coated with a recombinant LDLR-AB domain, which binds to the gene pro-protein convertase of the subtype nine. Test compound at different concentrations was added to the subtype gene and added to LDLR immobilized on the wells. The amount of bound gene is measured by binding it with biotinylated anti-His-tag monoclonal antibody, followed by binding with horseradish peroxidase conjugated streptavidin substrate. The color was quantified by ELISA reader at […] which reflects the relative amount of “the gene” that binds to LDLR in presence and absence of the inhibitor. EC50 values were calculated by nonlinear regression analysis using graph pad prism software. Each concentration point represents values in duplicates.

[2] = tested on: High Fat Diet C57 Mice; assay: LDL-C lowering activity in high fat diet C57 mice; type: in vivo; conditions: C57 mice on high fat diet, dose 30 mg, orally once a day, day 28 of treatment
Description: The in-vivo LDL-c lowering for test compound was tested in C57 mice which were kept on high fat diet for 4 weeks and the blood was collected by retro-orbital sinus puncture method under light ether anesthesia on day 0 (pretreatment). Animal are grouped based on LDL-C levels, after that 4-6 week treatment with vehicle or test compound orally at a dose of 30 mpk dose once a day was given. On completion of treatment on day 28 of the treatment the blood was collected for LDL-C levels measurement. The percent change in LDL-C in test compound group Vs Vehicle group was calculated.

inhibition at 1 µM [1] [%]	inhibition at 10 µM [1] [%]	inhibition at 100 µM [1] [%]	Structure (SMILES)	% Change Vs Vehicle Control LDL-C [2] [%]	% Change Vs Vehicle Control TC [2] [%]
29	35	57	CCC(=NOCc1ccc(C(F)(F)F)cc1)c1ccc(OCC(=O)NCC2CCOCC2)cc1 [Example 1, N-((tetrahydro-2H-pyran-4-yl)methyl)-2-(4-(1-(((4-(trifluoromethyl)benzyl)oxy)imino)propyl)phenoxy)acetamide]	−48.8 ± 4.2	−11.8 ± 2.7
28	41	54	CC(=NOCc1ccc(C(F)(F)F)cc1)c1ccc(OCC(=O)NCC2CCOCC2)nc1 [Example 3, N-((tetrahydro-2H-pyran-4-yl)methyl)-2-((5-(1-(((4-(trifluoromethyl)benzyl)oxy)imino)ethyl)pyridin-2-yl)oxy)acetamide]	−74.6 ± 2.0	−33.6 ± 2.0
16	38	63	CC(=NOCc1ccc(C(F)(F)F)cc1)c1ccc(OCC(=O)NCC2CCOCC2)cc1 [Example 18, N-((tetrahydro-2H-pyran-4-yl)methyl)-2-(4-(1-(((4-(trifluoromethyl)benzyl)oxy)imino)ethyl)phenoxy)acetamide]	−75.2 ± 3.5	−41.6 ± 1.9
29	46	46	CCC(=NOCc1ccc(C(F)(F)F)cc1)c1ccc(OCC(=O)NCC2CCOCC2)nc1 [Example 22, N-((tetrahydro-2H-pyran-4-yl)methyl)-2-((5-(1-(((4-(trifluoromethyl)benzyl)oxy)imino)propyl)pyridin-2-yl)oxy)acetamide]	−64.6 ± 4.1	−21.5 ± 2.8
15	20	29	O=C(COc1ccc(C(CO)=NOCc2ccc(C(F)(F)F)cc2)cc1)NCC1CCOCC1 [Example 31, 2-(4-(2-hydroxy-1-(((4-(trifluoromethyl)benzyl)oxy)imino)ethyl)phenoxy)-N-((tetrahydro-2H-pyran-4-yl)methyl)acetamide]	−30.6 ± 3.6	−3.5 ± 3.4
	33	42	O=C(COc1ccc(C(Cc2ccccc2)=NOCc2ccc(OC(F)(F)F)cc2)cc1)NCC1CCOCC1 [Example 39, 2-(4-(2-phenyl-1-(((4-(trifluoromethoxy)benzyl)oxy)imino)ethyl)phenoxy)-N-((tetrahydro-2H-pyran-4-yl)methyl)acetamide]		
	20	47	COc1ccc(CON=C(Cc2ccccc2)c2ccc(OCC(=O)NCC3CCOCC3)c(C)c2)cc1 [Example 40, 2-(4-(1-(((4-methoxybenzyl)oxy)imino)-2-phenylethyl)-2-methylphenoxy)-N-((tetrahydro-2H-pyran-4-yl)methyl)acetamide]		
10		19	COc1ccc(CON=C(Cc2ccccc2)c2ccc(OCC(=O)NCC3CCOCC3)cc2)cc1 [Example 41, 2-(4-(1-(((4-methoxybenzyl)oxy)imino)-2-phenylethyl)phenoxy)-N-((tetrahydro-2H-pyran-4-yl)methyl)acetamide]		
	9	51	CCC(=NOCc1ccc(S(C)(=O)=O)cc1)c1ccc(OCC(=O)NCC2CCOCC2)cc1 [Example 42, 2-(4-(1-(((4-(methylsulfonyl)benzyl)oxy)imino)propyl)phenoxy)-N-((tetrahydro-2H-pyran-4-yl)methyl)acetamide]		
	15	27	O=C(COc1ccc(C(Cc2ccccc2)=NOCc2ccccn2)cc1)NCC1CCOCC1 [Example 43, 2-(4-(2-phenyl-1-((pyridin-2-ylmethoxy)imino)ethyl)phenoxy)-N-((tetrahydro-2H-pyran-4-yl)methyl)acetamide]		
17	42	64	O=C(COc1ccc2c(c1)CCCC2=NOCc1ccc(C(F)(F)F)cc1)NCC1CCOCC1 [Example 48, N-((tetrahydro-2H-pyran-4-yl)methyl)-2-((5-(((4-(trifluoromethyl)benzyl)oxy)imino)-5,6,7,8-tetrahydronaphthalen-2-yl)oxy)acetamide]		
	7	11	O=C(COc1ccc2c(c1)CCCC2=NOCc1ccc(Cl)cc1)NCC1CCOCC1 [Example 49, 2-((5-(((4-chlorobenzyl)oxy)imino)-5,6,7,8-tetrahydronaphthalen-2-yl)oxy)-N-((tetrahydro-2H-pyran-4-yl)methyl)acetamide]		
